This is an account of results in paper PMC8691714 (Cancer Research Communications, 2021).

For one series, the target named is T1, OCT3 (Homo sapiens, UniProt O75751).
T1 construct: expressed in transfected cells; compared with empty vector control
T1 sequence (O75751 1-556): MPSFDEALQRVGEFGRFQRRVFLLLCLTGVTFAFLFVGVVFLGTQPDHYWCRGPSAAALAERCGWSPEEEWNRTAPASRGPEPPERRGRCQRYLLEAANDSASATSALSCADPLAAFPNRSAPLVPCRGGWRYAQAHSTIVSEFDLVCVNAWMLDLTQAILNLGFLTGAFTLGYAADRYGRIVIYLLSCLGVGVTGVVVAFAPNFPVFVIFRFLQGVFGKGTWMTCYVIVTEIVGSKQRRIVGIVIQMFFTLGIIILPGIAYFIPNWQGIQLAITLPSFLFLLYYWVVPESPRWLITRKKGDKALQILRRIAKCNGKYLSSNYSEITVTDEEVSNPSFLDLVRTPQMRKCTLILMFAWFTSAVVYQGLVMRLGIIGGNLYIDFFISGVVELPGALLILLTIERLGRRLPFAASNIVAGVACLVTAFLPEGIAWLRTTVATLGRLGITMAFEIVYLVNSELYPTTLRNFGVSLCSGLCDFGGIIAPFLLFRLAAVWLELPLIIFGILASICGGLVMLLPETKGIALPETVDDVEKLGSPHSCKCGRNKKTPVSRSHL
Nature of the series: In vitro transport assay, cells overexpressing OCT3. It is filed as cell-based. The note with it: OCT3 vs empty vector; 15 minutes.

Another series relates to Caco-2. The arrangement: method as in earlier work. The settings on record: PBPK model parameter; ref [17, 18] and Drugbank; cited from earlier work.
The next series relates to TMD8 cells. Nature of the series: MTT viability assay, TMD8 cells, 72 hours. The settings on record: Homo sapiens, TMD8, 72 h, MTT. It is filed as cell-based, human. As for the experimental part:
Cell viability was assessed after 72 hours of incubation.

A short description of series [1]: Cardiac distribution of ibrutinib in mice (heart-to-plasma ratio). The note with it: female wild-type mice; six hours after ibrutinib 10 mg/kg orally; cobicistat 30 mg/kg pretreatment vs vehicle; P < 0.01.
For series [2] the following is noted: cited from earlier work.
On the set-up of series [3]: method as in earlier work. The settings on record: PBPK model parameter, ref [17, 18] and Drugbank, cited from earlier work.

`C=CC(=O)N1CCC[C@@H](n2nc(-c3ccc(Oc4ccccc4)cc3)c3c(N)ncnc32)C1` [Ibrutinib]: at OCT3, the “uptake of ibrutinib by transporter-overexpressing cells” value was “not substantially facilitated”. For the same molecule, the Caco-2 with Caco-2 is 32.6 ×10⁻⁶ cm/s. Also, the IC50 in the series on TMD8 cells (None (Fig. 2A, ketoconazole panel)) came out at 1.4 nM; in the series on TMD8 cells (None (Fig. 2B, cobicistat panel)), 1.4 nM; in the series with TMD8 cells (with 0.1 μmol/L cobi), 1.3 nM; with TMD8 cells (with 0.1 μmol/L keto), 1.1 nM; with TMD8 cells (with 1 μmol/L cobi) it was 1.1 nM; with TMD8 cells (with 1 μmol/L keto) it was 1 nM. Further, the half-inhibitory concentration (IC50) in the series on TMD8 cells (with 10 μmol/L cobi) was 0.82 nM; in the series on TMD8 cells (with 10 μmol/L keto), 0.88 nM. In series [1], the “heart levels of ibrutinib normalized to plasma levels” value is “substantially lower levels”. Besides, the “experimentally observed increase in ibrutinib exposure” value in series [2] (itraconazole-ibrutinib interaction, ref [8]) was 10 fold. Further, the “increase in ibrutinib exposure predicted from a pharmacokinetic model” value in series [2] (itraconazole-ibrutinib interaction, ref [23]) is recorded as 21 fold. For the same molecule, the oral bioavailability in series [2] (patients, ref [4, 5]) was < 3%.
For the molecule `Nc1ncnc2c1c(-c1ccc(Oc3ccccc3)cc1)nn2[C@@H]1CCCN(C(=O)C(O)CO)C1` (stereo partly shown) [PCI-45227], the Clpo result in series [3] (oral clearance) is recorded as “Clpo (L/h) : 433”. The Vss in series [3] (steady-state volume of distribution) is listed as 9.0 L/kg.
